Results taken from publication PMC9306587 (European Journal of Immunology, 2022).

How the values were obtained:
HLA-ES147C = target: T1, HLA-ES147C (Homo sapiens, UniProt P13747, S168C); assay type: binding
T1 construct: made in house

HLA-E*01:03 [1] = target: T2, HLA-E*01:03 (Homo sapiens, UniProt P13747); experiment: pHLA Thermofluor (thermal shift) assay; assay type: binding; conditions: Table S2; SYPRO Orange thermal shift, pHLA 0.25 mg/mL in PBS, 10 to 95°C at 1°C/min, triplicate; two independent experiments
T2 construct: made in house
Experimental: Thermal shift assay experiments were performed using a RT‐PCR instrument (Quantstudio 6, Applied Biosystems). SYPRO Orange protein gel stain (5000× stock solution) was diluted in PBS to yield a 75× working solution. In a 96‐well plate, 23 μL of pHLA at 0.25 mg/mL was added to 2 μL of SYPRO Orange working solution to a final volume of 25 μL, with each pHLA prepared in triplicate. Mixtures were heated from 10 to 95°C with a temperature increment of 1°C/min. Fluorescence was detected using the FAM filter set, with excitation and emission wavelength at 495 and 518 nm, respectively. Data analysis was performed using Protein Thermal Shift Software version 1.4 (Thermofisher Scientific) to determine Tm.

HLA-E*01:03 [2] = target: T2, HLA-E*01:03; experiment: pHLA-E complex stability by SPR (ILT2 binding over time); conditions: for t1/2: Table S2, SPR BIAcore T200, biotinylated pHLA-E monomers on streptavidin CM5 chip, 1 μM soluble ILT2 at regular intervals over 5 h, 25°C
Experimental: HLA‐E heavy chain (without transmembrane domain and with or without a C‐terminal biotinylation tag, AviTagsequence) and β2m were expressed and refolded with the peptide of interest and subsequently purified, as previously described. To biotinylate complexes prior to size exclusion chromatography, complexes were AviTag treated with biotin‐protein ligase (BirA) according to the manufacturer's instructions (Avidity BirA‐500 kit).
The stability of all pHLA‐E complexes was assessed by SPR using a BIAcore T200 instrument. Purified biotinylated pHLA‐E monomers (HLA‐E*01:03 was used throughout) were immobilized onto a streptavidin‐coupled CM5 sensor chip. A total of 1 μM of soluble ILT2 was flowed over the chip at 10 μL/min for 60 s. ILT2 binding to pHLA‐E complexes was measured at regular intervals over 5 h and responses were normalized by subtracting the bulk buffer response of a control flow cell containing no pHLA. Binding t 1/2 was calculated by plotting % activity against time using the Biacore T200 evaluation software version 3.0 and GraphPad Prism version 8.3.0.

VMAPRTLLL [LA13-11]
t1/2(hours) HLA-ES147C(H3C) (HLA-ES147C): 16.74 h | Average Tm (HLA-E*01:03 [1]): 47.87 °C | t1/2 (HLA-E*01:03 [2]): 2.8 h | t1/2 (HLA-E*01:03 [2]; representative of at least two independent experiments): 2.8 h | t1/2(hours) HLA-E (HLA-E*01:03 [2]; Table S4, SPR with ILT2 over 5 h): 2.8 h
